Structures can show the parent of a compound that is named as a salt. Where two headings read alike, the source gives them in different places.
Legend:
[1] = test system: individuals with a diagnosis of MCI with DepE scores >=2; settings: 4 months duloxetine 30-60 mg/day, n=16 participants in the trial
Description: Treatment duration was 4 months of duloxetine versus placebo. The initial dosage consisted of 30 mg/day duloxetine or placebo; after two weeks, dosage was increased to 60 mg/day. Dosage during the last two weeks of the 4-month study was reduced to 30 mg/day. […] In this study, the inventors recruited n=16 participants with clinical diagnosis of amnestic MCI (single or multi-domain). N=14 subjects enrolled were of Mexican American ethnicity.

[2] = test system: individuals with a diagnosis of MCI with DepE scores >=2
Description: (§1) Next, the inventors conducted an investigator-initiated clinical trial (NCT02590874). […] Treatment duration was 4 months of duloxetine versus placebo. The initial dosage consisted of 30 mg/day duloxetine or placebo; after two weeks, dosage was increased to 60 mg/day. Dosage during the last two weeks of the 4-month study was reduced to 30 mg/day. Secondary endpoints of change in Repeatable Battery for the Assessment of Neuropsychological Status (RBANS) memory scores from baseline to study completion were analyzed. In this study, the inventors recruited n=16 participants with clinical diagnosis of amnestic MCI (single or multi-domain).

[3] = test system: individuals with a diagnosis of MCI with elevated DepE scores; settings: treatment group, follow-up after 4 months
Description: as §1
Fasting blood samples were collected at baseline and follow-up. Several plasma biomarkers were assessed to determine neurodegeneration over treatment duration: Neurofilament light (NfL)(FIG. 6), Tau (FIG. 5), Aβ40 (FIG. 4) and Aβ42 (FIG. 3).

[4] = Baseline, amnestic MCI participants, duloxetine group before treatment
[5] = Follow-up, 4 months treatment, 30 mg/day then 60 mg/day, last two weeks 30 mg/day, *p < .05

For `CNCC[C@H](Oc1cccc2ccccc12)c1cccs1` [Duloxetine, N-methyl-γ-(1-naphthalenyloxy)-2-thiopropanamine hydrochloride], the “Serious Adverse Effects (SAEs)” value [1] was “no Serious Adverse Effects (SAEs) were identified”, the “RBANS Delayed Memory” value [2, 4] was 76.63(11.01) and the “RBANS Immediate Memory” value [2, 4] was 74.62(11.17). For the same compound, the “RBANS Total” value [2, 4] was 72.37(5.12), the “RBANS Delayed Memory” value [2, 5] was 91.50(6.98)* and the “RBANS Immediate Memory” value [2, 5] was 88.75(11.43)*. The “RBANS Total” value [2, 5] was 80.37(5.31)*, the “effect on memory abilities” value ([2]; MCI patients elevated in the depressive endophenotype, summary statement of the clinical trial) was “significant benefit” and the “change in RBANS Delayed Memory scores over treatment duration” value ([2]; treatment group, 4 months, no significant change in the placebo group (p<0.05), FIG. 2) was “significant improvement”. For the same compound, the “markers of neurodegeneration (NfL, Tau, Aβ40, Aβ42) at follow-up” value ([3]; MCI cases with elevated DepE scores) was “primarily stable”, the “plasma Aβ42, baseline versus follow-up” value ([3]; placebo group showed significant increase, FIG. 3) was “no significant differences” and the “plasma Aβ40, baseline versus follow-up” value ([3]; placebo group showed significant increase, FIG. 4) was “no significant differences”.
